In US7863321B2, “Anti-cancer combinations” (Cancer Research Technology Limited, priority 2001, dated 2011):
Structures can show the parent of a compound that is named as a salt. Where two headings read alike, the source gives them in different places. Marks after values point to notes of the source that are not given here.

Legend:
in vivo [1] = assay: in vivo
Protocol: (§1) Compounds: A stock solution of DMXAA, synthesised in the Auckland Cancer Society Research Centre, was prepared in phosphate-buffered saline, protected from light and stored frozen. Cisplatin (Sigma Chemical Co., St. Louis, Mo.) was dissolved in 0.9% saline. Stock solutions of carboplatin and 5-fluorouracil (Bristol Myers Squibb, Sermonita, Italy) and cyclophosphamide (Mead Johnson Oncology Products, Princeton, N.J.) were diluted with sterile water. […] All compounds were administered to mice by i.p. injection at 0.01 ml/g bodyweight.
(§2) Animals and Tumours: Murine mammary carcinoma MDAH-Mca-4 tumours were grown from stocks stored in liquid nitrogen at the sixth transplant generation. Tumours (eighth transplant generation when used) were grown from 20 μl of cell suspension (7 mg packed cells), inoculated i.m. (intramuscular) in the right gastrocnemius muscle of female C3H/HeN mice (22-25 g at the time of treatment). Mice were randomised to treatment which commenced when the tumour+leg diameter reached 10-11 mm (0.5-0.7 g tumour).
(§3) Host Toxicity and Antitumour Activity: Mice were treated with chemotherapeutic drugs at a range of doses, at 1.33-fold increments, up to the expected MTD (maximum tolerated dose, as estimated in pilot experiments or from the literature). Toxicity was assessed as lethality, and body weight loss measured four days after treatment. Any animals becoming moribund were terminated and treated as drug-related deaths in the analysis. The diameter of the tumour-bearing leg was measured 3 times per week after treatment. Antitumour activity was assessed from the tumour growth delay, defined as the difference in time to reach the endpoint of 13 mm (1.5 g tumour) for treated and control groups. Responses were classed as cures if animals were free of evident tumour 120 days after treatment. The statistical significance of tumour growth inhibition was tested by ANOVA using SAS for Windows, with Dunnett's test to evaluate p-values for differences between treatment groups. In experiments with substantial numbers of cures (free of tumour for >120 days after treatment), statistical significance was tested by Kruskal-Wallis non-parametric analysis of variance using SAS for Windows, and the difference between treatment and control groups by Dunn's test using Sigmastat v2.0. The gradient and standard error of dose-response curves was determined by linear regression using Sigmastat, and the DMF (Dose Modifying Factor) calculated as the gradient with DMXAA/gradient without DMXAA.

MDAH-Mca-4 tumours = assay type: in vivo, C3H/HeN mice; settings: for DMF: Dose Modifying Factor = gradient with DMXAA (80 μmol/kg)/gradient without DMXAA; for growth delays at their MTDs: chemotherapy drug alone at MTD; for Slope of dose/response: growth delay vs dose, linear regression; for single agent activity against MDAH-Mca-4 tumour: doses up to MTD
Protocol: as §1, §2, §3

in vivo [2] = settings: female, C3H/HeN, mouse, plasma, ip, 80 μmol/kg
Protocol: (§4) Pharmacokinetics: Female C3H/HeN mice bearing MDAH-Mca-4 tumours (0.5-0.7 g) were injected i.p. with carboplatin (316 μmol/kg), DMXAA (80 μmol/kg), or simultaneously received carboplatin and DMXAA, at the same doses. […] Groups of 2-5 mice were used for each time point.
(§5) HPLC analysis of DMXAA: Concentrations of DMXAA in plasma were determined as follows. Aliquots of plasma (50 μl) were treated with 1 ml of ice-cold acetonitrile:methanol (3:1 v/v), centrifuged, and the resulting supernatants evaporated using a Speed-Vac solvent concentrator (Savant Instruments, NY). The residues were dissolved in 200 μl of 10 mM ammonium acetate buffer (pH 5) and 25 μl was analysed by HPLC using a HP1100 system with diode array detector (278 nm) and fluorescence detector. The column used was a 3.2 mm×150 mm C8 5 μm column (Alltima Associates Inc., Deerfield, Ill.) and a flow rate of 0.7 ml/min, with a mobile phase of 16% acetonitrile (v/v) in 10 mM ammonium acetate buffer (pH 5). The retention time for DMXAA was 7.3 min. […] The intra- and inter-assay precision and accuracy gave coefficients of variation <7%, and an average recovery of 70%. The lower sensitivity limit of detection by fluorescence (signal:noise ratio of 3) was 0.1 μM. […]

[3] = Pharmacokinetics of carboplatin (platinum by ICP-MS) and DMXAA (HPLC) in plasma and tumour; settings: plasma; DMXAA 80 μmol/kg i.p.; (% CV)
Protocol: as §4, §5

[4] = test system: PSN1 pancreatic tumour xenografts; assay: PSN1 xenograft tumour volume tripling and doubling time; settings: i.v., DMXAA 20 mg/kg, gemcitabine 240 mg/kg, female MF1 nude mice; for PSN1 volume doubling times, Median: control 3.2; for PSN1 volume tripling times, Median: control 4.9
tumour blood flow = settings: Phase I clinical trials, well-tolerated doses; cited from earlier work
[5] = chemotherapy drug co-administered with DMXAA 80 μmol/kg, i.p.
[6] = female, C3H/HeN, mouse, in vivo, ip, MTD
[7] = chemotherapy drug alone, ± standard error of the slope
[8] = co-administered with DMXAA 80 μmol/kg
[9] = chemotherapy drug alone, i.p., mice bearing MDAH-Mca-4 tumours
[10] = female, C3H/HeN, mouse, in vivo, ip
[11] = DMXAA alone at 80 μmol/kg, i.p.

Compound	% body weight change at 4 days (in vivo [1]; chemotherapy drug alone, i.p.)	% body weight change at 4 days (in vivo [1]; [5])	MTD (in vivo [1]; [6])	DMF (MDAH-Mca-4 tumours)	growth delays at their MTDs (MDAH-Mca-4 tumours)	Slope of dose/response (MDAH-Mca-4 tumours; [7])	Slope of dose/response (MDAH-Mca-4 tumours; [8])	single agent activity against MDAH-Mca-4 tumour (MDAH-Mca-4 tumours; chemotherapy drug alone)	also measured
O=c1[nH]cc(F)c(=O)[nH]1 [5-fluorouracil, 5-fluoro-2,4(1H,3H)-pyrimidinedione]	−8.5 ± 0.8%	−14.1 ± 1.5%	1780 µmol/kg	0.5 ± 0.2	~10 days	0.0051 ± 0.001^a days/μmol/kg	0.0027 ± 0.001 days/µmol/kg	–	–
N.N.O=C([O-])C1(C(=O)[O-])CCC1.[Pt+2] [Carboplatin, platinum, diammine [1,1-cyclobutanedicarboxylato(2-)-0,0′]-, (SP-4-2)]	−5.6 ± 1.5%	−8.5 ± 1.4%	–	3.4 ± 2.3	–	0.0094 ± 0.0035 days/µmol/kg	0.032 ± 0.010 days/µmol/kg	essentially inactive	MTD (in vivo [1]; [9]): 316 µmol/kg; MTD (in vivo [1]; [5]): 316 µmol/kg
N.N.[Cl][Pt][Cl] [Cisplatin]	−9.5 ± 1.4%	−14.4 ± 2.3%	–	1.8 ± 1.2	~10 days	0.19 ± 0.06 days/µmol/kg	0.35 ± 0.12 days/µmol/kg	–	MTD (in vivo [1]; [9]): 42.1 µmol/kg; MTD (in vivo [1]; [5]): 42.1 µmol/kg
O=P1(N(CCCl)CCCl)NCCCO1 (centres unmarked) [Cyclophosphamide, 2-[bis(2-chloroethyl)amino]tetrahydro-2H-13,2-oxazaphosphorine-2-oxide monohydrate]	−0.8 ± 1.3%	−9.2 ± 1.4%	–	2.7 ± 0.3	~10 days	0.0062 ± 0.0001 days/µmol/kg	0.0167 ± 0.0013 days/µmol/kg	–	MTD at 4 days (in vivo [1]; [10]): ≥ 1340 µmol/kg
Cc1ccc2c(=O)c3cccc(CC(=O)O)c3oc2c1C [DMXAA, 5,6-dimethylxanthenone-4-acetic acid]	–	–	–	–	–	–	–	–	Km (in vivo [2]): 220 µM; mean tumour growth delays (range) (MDAH-Mca-4 tumours; [11]): 3.5 to 8.3 days; tumour growth delay, overall mean (MDAH-Mca-4 tumours; [11]): 6.6 ± 0.6 days; Vmax [3]: 63 (6.1) μm hr^−1; PSN1 volume doubling times, Treated-Control [4]: 0.4 days; PSN1 volume tripling times, Treated-Control [4]: 1.1 days; PSN1 volume doubling times, Median [4]: 3.6 days; PSN1 volume tripling times, Median [4]: 6.0 days; tumour blood flow by dynamic MRI (tumour blood flow): significant reduction in tumour blood flow
COc1cccc2c1C(=O)c1c(O)c3c(c(O)c1C2=O)C[C@@](O)(C(=O)CO)C[C@@H]3O[C@H]1C[C@H](N)[C@H](O)[C@H](C)O1 [Doxorubicin, (8S,10S)-10-[(3-amino-2,3,6-trideoxy-a-L-lyxo-hexopyranosyl)oxy]-8-glycolyl-7,8,9,10-tetrahydro-6,8,11-trihydroxy-1-meth-oxy-5,12-naphthacenedione hydrochloride]	−3.9 ± 0.6%	−5.5 ± 1.2%	23.7 µmol/kg	2.5 ± 1.1	~10 days	0.42 ± 0.10 days/µmol/kg	–	–	MTD (in vivo [1]; [10]): 17.8 µmol/kg
COc1cc([C@@H]2c3cc4c(cc3[C@@H](O[C@@H]3O[C@@H]5CO[C@@H](C)O[C@H]5[C@H](O)[C@H]3O)[C@H]3COC(=O)[C@H]23)OCO4)cc(OC)c1O [Etoposide, 4′-demethylepipodophyllotoxin-9-[4,6-0-(R)-ethylidene-(beta)-D-glucopyranoside]]	−2.0 ± 1.7%	−6.5 ± 3.3%	≥ 75 µmol/kg	4.7 ± 2.9	–	0.030 ± 0.010 days/µmol/kg	0.14 ± 0.04 days/µmol/kg	essentially inactive	–
CC[C@]1(O)C[C@H]2CN(CCc3c([nH]c4ccccc34)[C@@](C(=O)OC)(c3cc4c(cc3OC)N(C=O)[C@H]3[C@@](O)(C(=O)OC)[C@H](OC(C)=O)[C@]5(CC)C=CCN6CC[C@]43[C@@H]65)C2)C1 [Vincristine]	−7.0 ± 1.2%	−10.0 ± 1.4%	–	>7^c	–	-0.0 ± 1.3 days/µmol/kg	14.1 ± 5.4 days/µmol/kg	essentially inactive	MTD (in vivo [1]; female, C3H/HeN, mouse, in vivo, ip, MTD, chemotherapy drug alone, mice bearing MDAH-Mca-4 tumours): 1 µmol/kg; MTD (in vivo [1]; female, C3H/HeN, mouse, in vivo, ip, MTD, chemotherapy drug co-administered with DMXAA 80 μmol/kg): 1 µmol/kg
Nc1ccn([C@@H]2O[C@H](CO)[C@@H](O)C2(F)F)c(=O)n1 [gemcitabine, 2′-deoxy-2′,2′-difluorocytidine monohydrochloride (b-isomer)]	–	–	–	–	–	–	–	–	PSN1 volume doubling times, Treated-Control [4]: 7.5 days; PSN1 volume tripling times, Treated-Control [4]: 9.0 days; PSN1 volume doubling times, Median [4]: 9.7 days; PSN1 volume tripling times, Median [4]: 13.9 days
